This note sets out measurements from the supplement of paper PMC8671470.

The term cell viability denotes a read-out of living cells in per cent, often relative to untreated cells.

Common to all, as to test: cell viability (% survival relative to DMSO control, bortezomib = 0%); higher = less cytotoxic
Details in all cases: 72 h

One assay has as its system BV-173. A digest of the protocol:
(§1)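 After 72 h at 37 °C with 5% CO2, cell viability in 384-well plates was measured by CellTiter-Glo luminescence. The plates held compounds pre-printed at 1, 10, 100, 1000 or 10000 nM in duplicate, and cells from 10 AML and 5 CML lines seeded at densities titrated to linear growth. Percent survival is the duplicate mean, normalised to vehicle as 100% and a 10 µM positive control as 0%.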

Another assay has as its system ML-2. A digest of the protocol: as §1
A further assay relates to HEL. A digest of the protocol:
as §1

In another assay the test system is MOLM-13. Put shortly:
as §1

As for `CCOC(=O)N1c2ccc(C(F)(F)F)cc2[C@@H](N(Cc2cc(C(F)(F)F)cc(C(F)(F)F)c2)C(=O)OC)C[C@H]1CC` [Torcetrapib], the cell viability with BV-173 (1 nM) came to 82.9%; in the assay on BV-173 (10 nM), 94%; with BV-173 (100 nM) it was 67%; in the assay with BV-173 (1000 nM), 49.3%; with BV-173 (10000 nM), 26.9%; with ML-2 (1 nM) it was 89.8%. Also, the cell viability in the assay with ML-2 (10 nM) turned out to be 97%; with ML-2 (100 nM) it was 118%; with ML-2 (1000 nM), 80.9%; in the assay on ML-2 (10000 nM) it was 57.8%; with HEL (1 nM), 102%; in the assay on HEL (10 nM), 96.9%. Besides, the cell viability in the assay with HEL (100 nM) came out at 134%; in the assay with HEL (1000 nM) it was 103%; with HEL (10000 nM), 109%; in the assay on MOLM-13 (1 nM) it was 95.9%; in the assay with MOLM-13 (10 nM), 112%; with MOLM-13 (100 nM) it was 141%. Also, the results for the cell viability in the assay with MOLM-13 (1000 nM) and with MOLM-13 (10000 nM) were 98.3% and 63.7%, respectively.
As for `Oc1cc(Cl)ccc1Oc1ccc(Cl)cc1Cl` [Triclosan], the cell viability with BV-173 (1 nM) worked out at 98%; in the assay on BV-173 (10 nM), 120%; in the assay with BV-173 (100 nM), 107%; in the assay with BV-173 (1000 nM), 98.4%; in the assay with BV-173 (10000 nM), 105%; in the assay on ML-2 (1 nM), 101%. Besides, the cell viability in the assay with ML-2 (10 nM) was 104%; with ML-2 (100 nM), 102%; in the assay with ML-2 (1000 nM) it was 114%; with ML-2 (10000 nM), 93.5%; in the assay with HEL (1 nM), 118%; in the assay with HEL (10 nM), 110%. Besides, the cell viability in the assay on HEL (100 nM) was 86.3%; in the assay on HEL (1000 nM), 105%; in the assay with HEL (10000 nM), 108%; in the assay with MOLM-13 (1 nM) it was 102%; with MOLM-13 (10 nM), 90.9%; in the assay on MOLM-13 (100 nM), 103%. Moreover, the cell viability came out at 86.7% in the assay on MOLM-13 (1000 nM) and 109% with MOLM-13 (10000 nM).
As for `COc1cc2c(NC3CCN(C)CC3)nc(N3CCCN(C)CC3)nc2cc1OCCCN(C)C` [UNC0224], the cell viability in the assay with BV-173 (1 nM) came to 109%; in the assay on BV-173 (10 nM) it was 117%; with BV-173 (100 nM) it was 103%; with BV-173 (1000 nM) it was 91.6%; in the assay on BV-173 (10000 nM) it was 83.3%; in the assay with ML-2 (1 nM), 94%. Besides, the cell viability is 111% with ML-2 (10 nM); 95% in the assay on ML-2 (100 nM); 99.6% with ML-2 (1000 nM); 97.2% in the assay with ML-2 (10000 nM); 84.8% in the assay on HEL (1 nM); 114% in the assay with HEL (10 nM). Moreover, the cell viability was 106% with HEL (100 nM); 98.3% in the assay on HEL (1000 nM); 88.6% in the assay with HEL (10000 nM); 104% with MOLM-13 (1 nM); 111% in the assay with MOLM-13 (10 nM); 92.7% with MOLM-13 (100 nM). Also, the cell viability with MOLM-13 (1000 nM) stood at 104%; with MOLM-13 (10000 nM), 71.1%.
As to `CC(C)C[C@H](NC(=O)[C@@H](O)[C@H](N)Cc1ccccc1)C(=O)O` [Ubenimex], the cell viability in the assay on BV-173 (1 nM) is 97.5%; in the assay on BV-173 (10 nM), 110%; with BV-173 (100 nM), 90.8%; in the assay on BV-173 (1000 nM), 78.9%; with BV-173 (10000 nM), 99.9%; with ML-2 (1 nM), 108%. Besides, the cell viability with ML-2 (10 nM) is 109%; in the assay with ML-2 (100 nM) it was 101%; in the assay with ML-2 (1000 nM) it was 87.3%; in the assay with ML-2 (10000 nM), 99.8%; with HEL (1 nM), 107%; in the assay with HEL (10 nM), 106%. Moreover, the cell viability worked out at 95.4% with HEL (1000 nM); 106% in the assay on HEL (10000 nM); 110% in the assay on MOLM-13 (1 nM); 100% in the assay on MOLM-13 (10 nM); 114% with MOLM-13 (100 nM); 94.8% in the assay on MOLM-13 (1000 nM). For the same molecule, the cell viability in the assay on MOLM-13 (10000 nM) came out at 94.3%.
With `O=P(O)(O)C(O)(Cn1ccnc1)P(=O)(O)O` [Zoledronic acid], the cell viability amounted to 101% in the assay on BV-173 (1 nM); 109% with BV-173 (10 nM); 88.8% in the assay with BV-173 (100 nM); 97% with BV-173 (1000 nM); 99% with BV-173 (10000 nM); 80.5% with ML-2 (1 nM). Further, the cell viability in the assay on ML-2 (10 nM) was found to be 94.9%; with ML-2 (100 nM), 92.6%; in the assay on ML-2 (1000 nM) it was 105%; in the assay on ML-2 (10000 nM) it was 102%; with HEL (1 nM), 90.6%; in the assay on HEL (10 nM), 92.7%. The cell viability in the assay with HEL (100 nM) was determined as 101%; in the assay with HEL (1000 nM) it was 94.9%; with HEL (10000 nM), 99.3%; in the assay with MOLM-13 (1 nM), 99.2%; in the assay with MOLM-13 (10 nM), 117%; in the assay with MOLM-13 (100 nM), 103%. The cell viability in the assay with MOLM-13 (1000 nM) was found to be 84.5%; with MOLM-13 (10000 nM) it was 99.8%.
